Measurements: PubChem BioAssay (NCI)
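Cells were grown in 96-well plates and exposed to each compound for 48 hours at five concentrations; endpoints were interpolated linearly between bracketing concentrations, or set to the highest concentration if not reached. TGI denotes the concentration required for complete inhibition of growth.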

Key:
Assay in all cases: growth of human tumour cells (NCI), 48 h
786-0 renal = test system: 786-0 renal
A498 renal = test system: A498 renal
A549 NSCLC = test system: A549 NSCLC
ACHN renal = test system: ACHN renal
BT-549 breast = test system: BT-549 breast
CCRF-CEM leukemia = test system: CCRF-CEM leukemia
COLO 205 colon = test system: COLO 205 colon
DU-145 prostate = test system: DU-145 prostate
EKVX NSCLC = test system: EKVX NSCLC
HCC-2998 colon = test system: HCC-2998 colon
HCT-116 colon = test system: HCT-116 colon
HCT-15 colon = test system: HCT-15 colon
HL-60(TB) leukemia = test system: HL-60(TB) leukemia
HOP-62 NSCLC = test system: HOP-62 NSCLC
HOP-92 NSCLC = test system: HOP-92 NSCLC
HS 578T breast = test system: HS 578T breast
HT29 colon = test system: HT29 colon
IGROV1 ovarian = test system: IGROV1 ovarian
K-562 leukemia = test system: K-562 leukemia
KM12 colon = test system: KM12 colon
LOX IMVI melanoma = test system: LOX IMVI melanoma
M14 melanoma = test system: M14 melanoma
MALME-3M melanoma = test system: MALME-3M melanoma
MCF7 breast = test system: MCF7 breast
MDA-MB-231 breast = test system: MDA-MB-231 breast
MDA-MB-435 = test system: MDA-MB-435
MOLT-4 leukemia = test system: MOLT-4 leukemia
NCI-H226 lung = test system: NCI-H226 lung
NCI-H23 lung = test system: NCI-H23 lung
NCI-H460 lung = test system: NCI-H460 lung
NCI-H522 lung = test system: NCI-H522 lung
NCI/ADR-RES ovarian = test system: NCI/ADR-RES ovarian
OVCAR-3 ovarian = test system: OVCAR-3 ovarian
OVCAR-4 ovarian = test system: OVCAR-4 ovarian
OVCAR-5 ovarian = test system: OVCAR-5 ovarian
OVCAR-8 ovarian = test system: OVCAR-8 ovarian
PC-3 prostate = test system: PC-3 prostate
RPMI-8226 leukemia = test system: RPMI-8226 leukemia
RXF 393 renal = test system: RXF 393 renal
SF-268 CNS = test system: SF-268 CNS
SF-295 CNS = test system: SF-295 CNS
SF-539 CNS = test system: SF-539 CNS
SK-MEL-28 melanoma = test system: SK-MEL-28 melanoma
SK-MEL-5 melanoma = test system: SK-MEL-5 melanoma
SK-OV-3 ovarian = test system: SK-OV-3 ovarian
SN12C renal = test system: SN12C renal
SNB-19 CNS = test system: SNB-19 CNS
SR leukemia = test system: SR leukemia
SW-620 colon = test system: SW-620 colon
T-47D breast = test system: T-47D breast
TK-10 renal = test system: TK-10 renal
U251 CNS = test system: U251 CNS
UACC-257 melanoma = test system: UACC-257 melanoma
UACC-62 melanoma = test system: UACC-62 melanoma
UO-31 renal = test system: UO-31 renal
CAKI-1 renal = test system: CAKI-1 renal
SK-MEL-2 melanoma = test system: SK-MEL-2 melanoma
SNB-75 CNS = test system: SNB-75 CNS

With `NCCCNc1ccc2c(c1)[n+]([O-])c1ccccc1[n+]2[O-]` the TGI (786-0 renal) was over 100 µM, the TGI (A498 renal) was 47.8 µM and the TGI (A549 NSCLC) was over 100 µM. The TGI (ACHN renal) was 77.7 µM, the TGI (BT-549 breast) was 64 µM and the TGI (CCRF-CEM leukemia) was 91.4 µM. The TGI (COLO 205 colon) was 45.2 µM, the TGI (DU-145 prostate) was 70.8 µM and the TGI (EKVX NSCLC) was over 100 µM. For the same compound, the TGI (HCC-2998 colon) was over 100 µM, the TGI (HCT-116 colon) was 63.7 µM and the TGI (HCT-15 colon) was 66.3 µM. For the same compound, the TGI (HL-60(TB) leukemia) was 57.6 µM, the TGI (HOP-62 NSCLC) was 93.5 µM and the TGI (HOP-92 NSCLC) was 62.6 µM. For the same compound, the TGI (HS 578T breast) was 60 µM, the TGI (HT29 colon) was over 100 µM and the TGI (IGROV1 ovarian) was 41.5 µM. The TGI (K-562 leukemia) was over 100 µM, the TGI (KM12 colon) was 80.3 µM and the TGI (LOX IMVI melanoma) was 94.3 µM. It also gave a TGI (M14 melanoma) of over 100 µM, a TGI (MALME-3M melanoma) of 46.6 µM and a TGI (MCF7 breast) of over 100 µM. It also gave a TGI (MDA-MB-231 breast) of 57.6 µM, a TGI (MDA-MB-435) of over 100 µM and a TGI (MOLT-4 leukemia) of 67.2 µM. For the same compound, the TGI (NCI-H226 lung) was 45.5 µM, the TGI (NCI-H23 lung) was 97.5 µM and the TGI (NCI-H460 lung) was 53.6 µM. For the same compound, the TGI (NCI-H522 lung) was 30.7 µM, the TGI (NCI/ADR-RES ovarian) was over 100 µM and the TGI (OVCAR-3 ovarian) was 50.5 µM. The TGI (OVCAR-4 ovarian) was 92.6 µM, the TGI (OVCAR-5 ovarian) was over 100 µM and the TGI (OVCAR-8 ovarian) was over 100 µM. The TGI (PC-3 prostate) was over 100 µM, the TGI (RPMI-8226 leukemia) was 54.4 µM and the TGI (RXF 393 renal) was 55.9 µM. For the same compound, the TGI (SF-268 CNS) was over 100 µM, the TGI (SF-295 CNS) was over 100 µM and the TGI (SF-539 CNS) was 53.9 µM. For the same compound, the TGI (SK-MEL-28 melanoma) was over 100 µM, the TGI (SK-MEL-5 melanoma) was 31.8 µM and the TGI (SK-OV-3 ovarian) was 50.4 µM. The TGI (SN12C renal) was over 100 µM, the TGI (SNB-19 CNS) was over 100 µM and the TGI (SR leukemia) was 61.4 µM. The TGI (SW-620 colon) was over 100 µM, the TGI (T-47D breast) was 69.6 µM and the TGI (TK-10 renal) was over 100 µM. It also gave a TGI (U251 CNS) of 91.9 µM, a TGI (UACC-257 melanoma) of 83.2 µM and a TGI (UACC-62 melanoma) of 49.2 µM. The TGI (UO-31 renal) was over 100 µM.
Compound `Cc1ccc(SCC(OCn2cnc3c(N)ncnc32)[C@H](C)F)cc1` (some centres undefined) has a TGI (786-0 renal) of over 100 µM, a TGI (A549 NSCLC) of over 100 µM and a TGI (ACHN renal) of over 100 µM. It also gave a TGI (BT-549 breast) of over 100 µM, a TGI (CAKI-1 renal) of over 100 µM and a TGI (CCRF-CEM leukemia) of over 100 µM. It also gave a TGI (COLO 205 colon) of over 100 µM, a TGI (DU-145 prostate) of over 100 µM and a TGI (HCC-2998 colon) of over 100 µM. For the same compound, the TGI (HCT-116 colon) was over 100 µM, the TGI (HCT-15 colon) was over 100 µM and the TGI (HL-60(TB) leukemia) was over 100 µM. It also gave a TGI (HOP-62 NSCLC) of over 100 µM, a TGI (HOP-92 NSCLC) of over 100 µM and a TGI (HS 578T breast) of over 100 µM. It also gave a TGI (HT29 colon) of over 100 µM, a TGI (IGROV1 ovarian) of over 100 µM and a TGI (KM12 colon) of over 100 µM. The TGI (LOX IMVI melanoma) was over 100 µM, the TGI (M14 melanoma) was over 100 µM and the TGI (MALME-3M melanoma) was over 100 µM. It also gave a TGI (MCF7 breast) of over 100 µM, a TGI (MDA-MB-231 breast) of over 100 µM and a TGI (MDA-MB-435) of over 100 µM. For the same compound, the TGI (MOLT-4 leukemia) was over 100 µM, the TGI (NCI-H226 lung) was over 100 µM and the TGI (NCI-H23 lung) was over 100 µM. It also gave a TGI (NCI-H460 lung) of over 100 µM, a TGI (NCI-H522 lung) of over 100 µM and a TGI (NCI/ADR-RES ovarian) of over 100 µM. For the same compound, the TGI (OVCAR-3 ovarian) was over 100 µM, the TGI (OVCAR-4 ovarian) was over 100 µM and the TGI (OVCAR-5 ovarian) was over 100 µM. The TGI (OVCAR-8 ovarian) was over 100 µM, the TGI (PC-3 prostate) was over 100 µM and the TGI (RPMI-8226 leukemia) was over 100 µM. For the same compound, the TGI (SF-268 CNS) was over 100 µM, the TGI (SF-295 CNS) was over 100 µM and the TGI (SF-539 CNS) was over 100 µM. The TGI (SK-MEL-2 melanoma) was over 100 µM, the TGI (SK-MEL-28 melanoma) was over 100 µM and the TGI (SK-MEL-5 melanoma) was over 100 µM. It also gave a TGI (SK-OV-3 ovarian) of over 100 µM, a TGI (SN12C renal) of over 100 µM and a TGI (SNB-19 CNS) of over 100 µM. The TGI (SNB-75 CNS) was over 100 µM, the TGI (SR leukemia) was over 100 µM and the TGI (SW-620 colon) was over 100 µM. For the same compound, the TGI (T-47D breast) was over 100 µM, the TGI (TK-10 renal) was over 100 µM and the TGI (U251 CNS) was over 100 µM. The TGI (UACC-257 melanoma) was over 100 µM, the TGI (UACC-62 melanoma) was over 100 µM and the TGI (UO-31 renal) was over 100 µM.
